In PMC6130518, “Investigation of the effective components of the flowers of Trollius chinensis from the perspectives of intestinal bacterial transformation and intestinal absorption” (Pharmaceutical Biology, 2017):
“Also recorded” adds a separate entry of the source.

Legend:
[1] = previous study, ref Liu et al. [2015]; cited from earlier work
[2] = system: Caco-2 cell monolayers; experiment: Transport experiment with Caco-2 cell monolayers; settings: for transport percentage: Caco-2 cell monolayers; for After transported with Caco-2 cell monolayers: intestinal bacterial transformed AEOF
Description: (§1) The Caco-2 cells were cultured in the culture medium consisting of Dulbecco’s Modified Eagle Medium (DMEM, Gibco Inc., Grand Island, CA)-fetal bovine serum (FBS, Gibco Inc., Grand Island, CA)-nonessential amino acids (NEAA, Corning Costar, Cambridge, MA)-‘penicillin-streptomycin’ (Corning Costar, Cambridge, MA) (100:10:1:1, v/v/v/v) in 25 cm^2 flasks, which were incubated in 5% CO2 and constant temperature (37 °C) and humidity in the incubator. The culture medium was replaced every 2 or 3 days, and the cells were split 1:2 or 1:3 to conduct passage when they reached 80% confluence.
(§2) About 1.5 mL of the culture medium was added into the basal (BL) side of each well of the 12-well Transwell plates (insert diameter 12 mm, pore size 3.0 μm, membrane growth area 1.12 cm^2, Corning Costar, Cambridge, MA), and 0.5 mL of the Caco-2 cell suspension at the density of 2.0 × 10^5 cells/mL was seeded into the apical (AP) side of each insert. The cells were incubated in 5% CO2 and constant temperature (37 °C) and humidity in the incubator. The culture medium in both AP and BL sides was replaced every other day in the first week, then that in AP side was replaced every day and that in BL side was replaced every other day. The cells would differentiate and form a confluent monolayer. The integrity and viability of the cell monolayers were evaluated by measuring transepithelial electrical resistance (TEER) values in the culture medium at 37 °C using a Millicell®-ERS system (Millipore Corp., Bedford, MA), and only the inserts with the TEER above 600 Ω/cm^2 on day 21 were selected to perform the transport experiment.
(§3) About 200 μL of the solution in the receiving chambers was collected at 30, 60, 90, 120, 150, and 180 min, respectively, and then the same volume of HBSS was added. All samples were stored at −20 °C and filtered through a 0.45 μm membrane filter for HPLC analysis.
(§4) The HPLC conditions used for the analysis of the intestinal bacterial transformed AEOF before and after transport experiment was the same as above.
(§5) The transport percentage (%) was calculated using the formula transport percentage (%) = dQ/(C0 × V) × 100, wherein, V (mL) represented the volume of the donor compartment.

[3] = Transport experiment with Caco-2 cell monolayers; settings: human, Caco-2, Papp, Caco-2 cell monolayers; for Papp at 180 min, 10 mg/mL: extract 10 mg/mL; for Papp at 180 min, 20 mg/mL: extract 20 mg/mL; for Papp at 180 min, 30 mg/mL: extract 30 mg/mL
Description: as §1, §2, §3, §4, §5

[4] = system: activated intestinal bacteria; experiment: Intestinal bacterial transformation of AEOF; type: in vitro ADME, human; settings: for After transformed by intestinal bacteria / Before transformed by intestinal bacteria: content in the extract; for transformation by intestinal bacteria (in words): in AEOF 15.0, 30.0, 60.0 mg/mL, up to 72 h, single person derived- or multiple people-derived intestinal bacteria
Description: Each 3 g of fresh feces from 3 healthy men and 3 healthy women of 23–25 years old was suspended in 200 mL of general anaerobic medium (GAM, including L-cystine hydrochloride, soluble starch, pepsin, tryptone, peptone, soy peptone, serum powder, yeast extract, beef extract, and beef liver extract powder purchased from Beijing Aoboxing Biotechnology Co., Ltd, Beijing, China) broth prepared as per a literature (Yang & Xu [2011]), respectively, and cultured in an anaerobic incubator (Shanghai Cimomedical Appliance Co., Ltd., Shanghai, China) at 37 °C for 24 h (Tsuchihashi et al. [2009]). […] Each 100 μL of the activated intestinal bacteria from the 6 volunteers were added into 11.4 mL of GAM, mixed adequately, and incubated in the same conditions as previously to obtain the mixture of activated intestinal bacteria. About 0.4513, 0.9026, and 1.8052 g of AEOF were dissolved in 30 mL of GAM on a super clean bench (Beijing Great Wall Air Purification Co. Ltd., Beijing, China), respectively, to generate the experimental groups. Then, the triplicate GAM containing AEOF was divided into 24 screw-cap test tubes, and each screw-cap test tube had 3 mL of the GAM and 100 μL of the activated intestinal bacteria and the mixture of activated intestinal bacteria, respectively. They were incubated under the same condition, and the test tubes of each concentration in triplicate were removed from the anaerobic incubator at 0, 2, 4, 6, 12, 24, 48, and 72 h. About 100 μL of the bacterial suspension was replaced with GAM to obtain the control group. The GAM absent of the AEOF was used as the blank group. […] About 300 μL of the supernatant was collected, filtered through a 0.45 μm membrane filter, and stored at −20 °C before HPLC analysis.
The HPLC analysis was performed using a Waters 1500 series (Waters Business Operations, Milford, MA) equipped with a 1525 binary HPLC pump, an on-line degasser, a manual injector and a 2489 UV/Visible detector. […] The temperature was set at 35 °C and the UV detecting wavelengths were 254 and 365 nm. The mobile phase consisted of acetonitrile (HPLC grade, Fisher Co., Pittsburgh, PA) (A) and 1.0% acetic acid (Beijing Chemical Works, Beijing, China) in purified water (v/v) (B), and the gradient elution program was as follows: 5–10% A (0–5 min), 10–20% A (5–10 min), 20–25% A (10–22 min), 25–40% A (22–35 min), 40–50% A (35–40 min), and 50–5% A (40–42 min) at a flow rate of 1.0 mL/min. The volume injected was 5 μL.

[5] = system: everted gut sacs (jejunum); experiment: Absorption experiment with everted gut sacs; settings: for transport percentage: Everted gut sacs, AP→BL; for After transported with everted gut sacs: intestinal bacterial transformed AEOF
[6] = Absorption experiment with everted gut sacs; settings: Sprague-Dawley, rat
[7] = first of three lines per compound (lowest concentration; 10, 20, 30 mg/mL)
[8] = second of three lines per compound (middle concentration, not given)
[9] = third of three lines per compound (highest concentration, not given)
[10] = first of three lines per compound (lowest extract concentration)
[11] = first of three lines per compound (lowest extract concentration; AEOF 15, 30, 60 mg/mL)
[12] = second of three lines per compound (middle extract concentration, not given)
[13] = third of three lines per compound (highest extract concentration, not given)

Compound	absorption mechanism [1]	transport percentage ([2]; extract 10 mg/mL, AP→BL)	transport percentage ([2]; extract 10 mg/mL, BL→AP)	transport percentage ([2]; extract 20 mg/mL, AP→BL)	transport percentage ([2]; extract 20 mg/mL, BL→AP)	transport percentage ([2]; extract 30 mg/mL, AP→BL)	transport percentage ([2]; extract 30 mg/mL, BL→AP)	After transported with Caco-2 cell monolayers [2, 7]	After transported with Caco-2 cell monolayers [2, 8]	After transported with Caco-2 cell monolayers [2, 9]	Papp at 180 min, 10 mg/mL ([3]; AP→BL)	Papp at 180 min, 10 mg/mL ([3]; BL→AP)	Papp at 180 min, 20 mg/mL ([3]; AP→BL)	Papp at 180 min, 20 mg/mL ([3]; BL→AP)	Papp at 180 min, 30 mg/mL ([3]; AP→BL)	Papp at 180 min, 30 mg/mL ([3]; BL→AP)	After transformed by intestinal bacteria [4, 10]	Before transformed by intestinal bacteria [4, 11]	After transformed by intestinal bacteria [4, 12]	Before transformed by intestinal bacteria [4, 12]	further results
O=c1cc(-c2ccc(O)c(O)c2)oc2c(C3OC(CO)C(O)C(O)C3OC3OC(CO)C(O)C(O)C3O)c(O)cc(O)c12 [2″-O-β-L-galactopyranosylorientin]	transporter mediated efflux in addition to passive diffusion	13.41%	8.72%	22.93%	14.08%	49.29%	16.83%	0.41 µg/mL	1.44 µg/mL	4.78 µg/mL	11.1 ± 0.9 ×10⁻⁶ cm/s	21.6 ± 2.4 ×10⁻⁶ cm/s	19 ± 0.9 ×10⁻⁶ cm/s	34.9 ± 0.9 ×10⁻⁶ cm/s	40.7 ± 4 ×10⁻⁶ cm/s	41.7 ± 2.8 ×10⁻⁶ cm/s	28.06 µg/mL	26.86 µg/mL	56.34 µg/mL	56.18 µg/mL	After transformed by intestinal bacteria [4, 13]: 100.57 µg/mL; Before transformed by intestinal bacteria [4, 13]: 104.39 µg/mL; transformation by intestinal bacteria (in words) [4]: not changed; transformation by intestinal bacteria (in words) ([4]; listed as 2″-O-β-L-Galactopyranosylorientin): not transformed; transport percentage ([5]; extract 10 mg/mL): 8.76%; transport percentage ([5]; extract 20 mg/mL): 4.23%; transport percentage ([5]; extract 30 mg/mL): 9.25%; After transported with everted gut sacs [5, 7]: 1.57 µg/mL; After transported with everted gut sacs [5, 8]: 1.69 µg/mL; After transported with everted gut sacs [5, 9]: 5.38 µg/mL; Papp at 180 min, 10 mg/mL [6]: 41.1 ± 2.5 ×10⁻⁶ cm/s; Papp at 180 min, 20 mg/mL [6]: 22.3 ± 4.1 ×10⁻⁶ cm/s; Papp at 180 min, 30 mg/mL [6]: 46.7 ± 2.5 ×10⁻⁶ cm/s
O=c1cc(-c2ccc(O)cc2)oc2c([C@@H]3O[C@H](CO)[C@@H](O)[C@H](O)[C@H]3O)c(O)cc(O)c12 [vitexin]	transporter mediated efflux in addition to passive diffusion	47.97%	11.43%	16.41%	6.61%	40.90%	8.74%	0.19 µg/mL	0.23 µg/mL	0.39 µg/mL	39.6 ± 0.5 ×10⁻⁶ cm/s	28.3 ± 2.7 ×10⁻⁶ cm/s	13.6 ± 1.5 ×10⁻⁶ cm/s	16.4 ± 0.5 ×10⁻⁶ cm/s	33.8 ± 2.8 ×10⁻⁶ cm/s	21.6 ± 0.5 ×10⁻⁶ cm/s	3.10 µg/mL	2.98 µg/mL	5.70 µg/mL	5.11 µg/mL	After transformed by intestinal bacteria [4, 13]: 11.19 µg/mL; Before transformed by intestinal bacteria [4, 13]: 11.04 µg/mL; transformation by intestinal bacteria (in words) [4]: not transformed; also recorded: not changed; transport percentage ([5]; extract 10 mg/mL): 5.55%; transport percentage ([5]; extract 20 mg/mL): 2.94%; transport percentage ([5]; extract 30 mg/mL): 7.55%; After transported with everted gut sacs [5, 7]: 0.11 µg/mL; After transported with everted gut sacs [5, 8]: 0.14 µg/mL; After transported with everted gut sacs [5, 9]: 0.50 µg/mL; Papp at 180 min, 10 mg/mL [6]: 26 ± 2.8 ×10⁻⁶ cm/s; Papp at 180 min, 20 mg/mL [6]: 15.5 ± 1.1 ×10⁻⁶ cm/s; Papp at 180 min, 30 mg/mL [6]: 38.1 ± 5 ×10⁻⁶ cm/s
